Source: patent US20250041307A1, “Uses of Bicyclic Compounds for the Treatment of Diseases” (Athira Pharma, Inc., priority 2021, published 2025)

How the values were obtained:
[1] = In vitro stability in human plasma; assay type: in vitro ADME; conditions: 5 μM, 37° C.
Procedure: (§1) Bioavailability can be estimated by compound stability when exposed to conditions in the body. As an initial assessment of stability properties in a variety of conditions present in animals, exemplary compounds were tested for stability in a battery of simulated body compartments. Compounds were tested for stability in the following solutions: simulated gastric fluid (SGF: 34.2 mM NaCl, pH 1.2), simulated gastric fluid with the digestive enzyme pepsin (SGF+Enzyme: SGF with 3.2 mg/ml pepsin), simulated intestinal fluid with the mixture of enzymes in porcine pancreatin (SIF+Enzyme: 28.7 mM NaH2PO4, 105.7 mM NaCl, pH 6.8, 10 mg/ml pancreatin), rat plasma, and human plasma.
(§2) Test compounds were incubated at a final concentration of 5 μM in the above solutions at 37° C. with samples removed at the following time points: 0, 1, 2, and 4 hours. Reactions were stopped and prepared for quantification by addition of excess quench solution containing an internal standard (acetonitrile, 200 ng/mL bucetin). Test compound and internal standard in each sample was quantified by LC-MS/MS, and after internal normalization to bucetin, test compound concentration was expressed as a percentage of concentration at the 0-hour time point. Stability in the relevant test solution was then determined by the percent remaining at the 4-hour time point.

MDCK cells = assay: Cell scattering behavior assay; assay type: cell-based; set-up: key: − indicates that the compound failed to significantly promote cell scattering behavior; + indicates maximum potency at or above 100 nM; ++ indicates maximum potency at or above 10 nM; +++ indicates maximum potency at or above 1 nM; ++++ indicates maximum potency at or above 0.1 nM; conditions: with 5 ng/mL HGF, 24 hours, normalized particle count compared to HGF treatment alone
Outline: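 MDCK cells starved 2 h in serum-free DMEM, then treated 24 h at 37 °C with compounds plus 5 ng/mL HGF. Cells were ethanol-fixed, WGA488-stained and imaged. Scattering was scored as particle count normalized to stained area, with activity taken as a statistical increase in normalized particle count over HGF alone.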

[2] = In vivo tissue distribution; set-up: species or system Sprague-dawley rats; conditions: rat, 10 minutes post administration
Procedure: The rate of distribution to target tissues is an important feature of therapeutic molecules. Tissue distribution of exemplary compounds was performed in mixed-sex Sprague-dawley rats. Test compounds were delivered via tail vein injection (IV) and tissues were collected at Tmax (10 minutes post administration). Animals were deeply anesthetized with isoflurane and whole blood was collected from the right atrium and processed by centrifugation to produce plasma. Animals were then fully perfused with PBS administered to the left ventricle to prevent blood contamination of tissues.
Tissues were collected and homogenized, and compound content in the target tissue was quantified by LC-MS/MS. Tissue distribution rates were determined by dividing the tissue concentration of compound by the plasma concentration and multiplying by 100.

[3] = In vitro stability in rat plasma; assay type: in vitro ADME; conditions: 5 μM, 37° C.
Procedure: as §1, §2

## CCC(C)CN1CC2N(C(=O)c3ccc(C(F)(F)F)cc3)CCC(=O)N2[C@@H](C)C1=O (stereo partly drawn) [Compound 1a]
[1]
  Human Plasma, compound remaining after 4 hours: ++ (++ indicates 40-79% compound remaining after 4 hours)
MDCK cells
  Potency: ++++ (++++ indicates maximum potency at or above 0.1 nM)
[2]
  Tissue Distribution (% Plasma exposure at 10 min post IV dose) Brain: ++ (++ indicates distribution between 5 and 39%)
  Tissue Distribution (% Plasma exposure at 10 min post IV dose) Cerebellum: ++ (++ indicates distribution between 5 and 39%)
  Tissue Distribution (% Plasma exposure at 10 min post IV dose) Cortex: ++ (++ indicates distribution between 5 and 39%)
  Tissue Distribution (% Plasma exposure at 10 min post IV dose) Hippocampus: ++ (++ indicates distribution between 5 and 39%)
[3]
  Rat Plasma, compound remaining after 4 hours: ++ (++ indicates 40-79% compound remaining after 4 hours)

## CCC(C)CN1CC2N(C(=O)c3ccc(OC(F)F)cc3)CCC(=O)N2[C@@H](C)C1=O (stereo partly drawn) [Compound 2a]
[1]
  Human Plasma, compound remaining after 4 hours: ++ (++ indicates 40-79% compound remaining after 4 hours)
MDCK cells
  Potency: + (+ indicates maximum potency at or above 100 nM)
[2]
  Tissue Distribution (% Plasma exposure at 10 min post IV dose) Brain: ++ (++ indicates distribution between 5 and 39%)
  Tissue Distribution (% Plasma exposure at 10 min post IV dose) Cerebellum: + (+ indicates distribution between 0.05 and 5%)
  Tissue Distribution (% Plasma exposure at 10 min post IV dose) Cortex: ++ (++ indicates distribution between 5 and 39%)
  Tissue Distribution (% Plasma exposure at 10 min post IV dose) Hippocampus: ++ (++ indicates distribution between 5 and 39%)
  Tissue Distribution (% Plasma exposure at 10 min post IV dose) Muscle: ++++ (++++ indicates distribution above 70%)
  Tissue Distribution (% Plasma exposure at 10 min post IV dose) Sciatic Nerve: ++++ (++++ indicates distribution above 70%)
[3]
  Rat Plasma, compound remaining after 4 hours: ++ (++ indicates 40-79% compound remaining after 4 hours)

## CCC(C)CN1CC2N(Cc3ccc(C(F)(F)F)cc3)CCC(=O)N2[C@@H](C)C1=O (stereo partly drawn) [Compound 5a]
[1]
  Human Plasma, compound remaining after 4 hours: ++ (++ indicates 40-79% compound remaining after 4 hours)
MDCK cells
  Potency: ++++ (++++ indicates maximum potency at or above 0.1 nM)
[2]
  Tissue Distribution (% Plasma exposure at 10 min post IV dose) Brain: ++++ (++++ indicates distribution above 70%)
  Tissue Distribution (% Plasma exposure at 10 min post IV dose) Cerebellum: ++++ (++++ indicates distribution above 70%)
  Tissue Distribution (% Plasma exposure at 10 min post IV dose) Cortex: ++++ (++++ indicates distribution above 70%)
  Tissue Distribution (% Plasma exposure at 10 min post IV dose) Hippocampus: ++++ (++++ indicates distribution above 70%)
[3]
  Rat Plasma, compound remaining after 4 hours: ++ (++ indicates 40-79% compound remaining after 4 hours)

## CCC(C)CN1CC2N(Cc3ccc(OC(F)F)cc3)CCC(=O)N2[C@@H](C)C1=O (stereo partly drawn) [Compound 6a]
[1]
  Human Plasma, compound remaining after 4 hours: ++ (++ indicates 40-79% compound remaining after 4 hours)
MDCK cells
  Potency: +++ (+++ indicates maximum potency at or above 1 nM)
[2]
  Tissue Distribution (% Plasma exposure at 10 min post IV dose) Brain: ++ (++ indicates distribution between 5 and 39%)
  Tissue Distribution (% Plasma exposure at 10 min post IV dose) Cerebellum: ++ (++ indicates distribution between 5 and 39%)
  Tissue Distribution (% Plasma exposure at 10 min post IV dose) Cortex: ++ (++ indicates distribution between 5 and 39%)
  Tissue Distribution (% Plasma exposure at 10 min post IV dose) Hippocampus: ++ (++ indicates distribution between 5 and 39%)
  Tissue Distribution (% Plasma exposure at 10 min post IV dose) Muscle: ++++ (++++ indicates distribution above 70%)
  Tissue Distribution (% Plasma exposure at 10 min post IV dose) Sciatic Nerve: ++++ (++++ indicates distribution above 70%)
[3]
  Rat Plasma, compound remaining after 4 hours: +++ (+++ indicates 80-99% compound remaining after 4 hours)

## CCC(C)CN1CC2N(Cc3ccc(O)nc3)CCC(=O)N2[C@@H](C)C1=O (stereo partly drawn) [Compound 7a]
MDCK cells
  Potency: ++ (++ indicates maximum potency at or above 10 nM)
[2]
  Tissue Distribution (% Plasma exposure at 10 min post IV dose) Brain: + (+ indicates distribution between 0.05 and 5%)
  Tissue Distribution (% Plasma exposure at 10 min post IV dose) Cerebellum: + (+ indicates distribution between 0.05 and 5%)
  Tissue Distribution (% Plasma exposure at 10 min post IV dose) Cortex: + (+ indicates distribution between 0.05 and 5%)
  Tissue Distribution (% Plasma exposure at 10 min post IV dose) Hippocampus: + (+ indicates distribution between 0.05 and 5%)
  Tissue Distribution (% Plasma exposure at 10 min post IV dose) Muscle: ++ (++ indicates distribution between 5 and 39%)
  Tissue Distribution (% Plasma exposure at 10 min post IV dose) Sciatic Nerve: ++++ (++++ indicates distribution above 70%)

## CCC(C)CN1CC2N(C(=O)c3ccc(O)cc3)CCC(=O)N2[C@@H](C)C1=O (stereo partly drawn) [Compound 8a]
[1]
  Human Plasma, compound remaining after 4 hours: ++ (++ indicates 40-79% compound remaining after 4 hours)
MDCK cells
  Potency: +++ (+++ indicates maximum potency at or above 1 nM)
[3]
  Rat Plasma, compound remaining after 4 hours: ++++ (++++ indicates 100% compound remaining after 4 hours)

## CCC(C)CN1CC2N(C(=O)c3ccc(F)cc3)CCC(=O)N2C(C)C1=O (stereo not drawn) [Compound 11, 1-(4-fluorobenzoyl)-6-methyl-8-(2-methylbutyl)hexahydro-4H-pyrazino[1,2-a]pyrimidine-4,7(6H)-dione]
[1]
  Human Plasma, compound remaining after 4 hours: +++ (+++ indicates 80-99% compound remaining after 4 hours)
MDCK cells
  Potency: ++ (++ indicates maximum potency at or above 10 nM)
[2]
  Tissue Distribution (% Plasma exposure at 10 min post IV dose) Brain: ++ (++ indicates distribution between 5 and 39%)
  Tissue Distribution (% Plasma exposure at 10 min post IV dose) Cerebellum: + (+ indicates distribution between 0.05 and 5%)
  Tissue Distribution (% Plasma exposure at 10 min post IV dose) Cortex: + (+ indicates distribution between 0.05 and 5%)
  Tissue Distribution (% Plasma exposure at 10 min post IV dose) Hippocampus: + (+ indicates distribution between 0.05 and 5%)
  Tissue Distribution (% Plasma exposure at 10 min post IV dose) Sciatic Nerve: ++ (++ indicates distribution between 5 and 39%)
[3]
  Rat Plasma, compound remaining after 4 hours: ++++ (++++ indicates 100% compound remaining after 4 hours)

## CCC(C)CN1CC2N(C(=O)c3ccc(C(F)(F)F)c(Cl)c3)CCC(=O)N2C(C)C1=O (stereo not drawn) [Compound 12, 1-(3-chloro-4-(trifluoromethyl)benzoyl)-6-methyl-8-(2-methylbutyl)hexahydro-4H-pyrazino[1,2-a]pyrimidine-4,7(6H)-dione]
[1]
  Human Plasma, compound remaining after 4 hours: +++ (+++ indicates 80-99% compound remaining after 4 hours)
MDCK cells
  Potency: ++ (++ indicates maximum potency at or above 10 nM)
[2]
  Tissue Distribution (% Plasma exposure at 10 min post IV dose) Brain: ++ (++ indicates distribution between 5 and 39%)
  Tissue Distribution (% Plasma exposure at 10 min post IV dose) Cerebellum: ++ (++ indicates distribution between 5 and 39%)
  Tissue Distribution (% Plasma exposure at 10 min post IV dose) Cortex: ++ (++ indicates distribution between 5 and 39%)
  Tissue Distribution (% Plasma exposure at 10 min post IV dose) Hippocampus: ++ (++ indicates distribution between 5 and 39%)
  Tissue Distribution (% Plasma exposure at 10 min post IV dose) Sciatic Nerve: +++ (+++ indicates distribution between 40 and 69%)
[3]
  Rat Plasma, compound remaining after 4 hours: ++++ (++++ indicates 100% compound remaining after 4 hours)

## CCCCN1CC2N(C(=O)c3ccc(OC(F)F)cc3)CCC(=O)N2C(C)C1=O (stereo not drawn) [Compound 17]
[1]
  Human Plasma, compound remaining after 4 hours: +++ (+++ indicates 80-99% compound remaining after 4 hours)
MDCK cells
  Potency: −
[3]
  Rat Plasma, compound remaining after 4 hours: ++ (++ indicates 40-79% compound remaining after 4 hours)

## CC1C(=O)N(CCC2CCCC2)CC2N(C(=O)c3ccc(C(F)(F)F)cc3)CCC(=O)N12 (stereo not drawn) [Compound 19]
[1]
  Human Plasma, compound remaining after 4 hours: +++ (+++ indicates 80-99% compound remaining after 4 hours)
MDCK cells
  Potency: +++ (+++ indicates maximum potency at or above 1 nM)
[3]
  Rat Plasma, compound remaining after 4 hours: +++ (+++ indicates 80-99% compound remaining after 4 hours)

## CC1C(=O)N(CCC2CCC2)CC2N(C(=O)c3ccc(C(F)(F)F)cc3)CCC(=O)N12 (stereo not drawn) [Compound 20]
[1]
  Human Plasma, compound remaining after 4 hours: +++ (+++ indicates 80-99% compound remaining after 4 hours)
MDCK cells
  Potency: +++ (+++ indicates maximum potency at or above 1 nM)
[2]
  Tissue Distribution (% Plasma exposure at 10 min post IV dose) Brain: ++++ (++++ indicates distribution above 70%)
  Tissue Distribution (% Plasma exposure at 10 min post IV dose) Cerebellum: ++++ (++++ indicates distribution above 70%)
  Tissue Distribution (% Plasma exposure at 10 min post IV dose) Cortex: ++++ (++++ indicates distribution above 70%)
  Tissue Distribution (% Plasma exposure at 10 min post IV dose) Hippocampus: +++ (+++ indicates distribution between 40 and 69%)
  Tissue Distribution (% Plasma exposure at 10 min post IV dose) Sciatic Nerve: ++++ (++++ indicates distribution above 70%)
[3]
  Rat Plasma, compound remaining after 4 hours: ++ (++ indicates 40-79% compound remaining after 4 hours)
